Usually pIC50 stands for the negative decadic logarithm of the IC50, by convention in mol/L.

The text below walks through data of patent US20240182460A1, “ALLOSTERIC CHROMENONE INHIBITORS OF PHOSPHOINOSITIDE 3-KINASE (PI3K) FOR THE TREATMENT OF DISEASE” (PETRA PHARMA CORPORATION, priority 2022, published 2024).

pIC50: −log10 of the molar value.

Chain of PI3Kα E545K (P42336 whole entry E545K): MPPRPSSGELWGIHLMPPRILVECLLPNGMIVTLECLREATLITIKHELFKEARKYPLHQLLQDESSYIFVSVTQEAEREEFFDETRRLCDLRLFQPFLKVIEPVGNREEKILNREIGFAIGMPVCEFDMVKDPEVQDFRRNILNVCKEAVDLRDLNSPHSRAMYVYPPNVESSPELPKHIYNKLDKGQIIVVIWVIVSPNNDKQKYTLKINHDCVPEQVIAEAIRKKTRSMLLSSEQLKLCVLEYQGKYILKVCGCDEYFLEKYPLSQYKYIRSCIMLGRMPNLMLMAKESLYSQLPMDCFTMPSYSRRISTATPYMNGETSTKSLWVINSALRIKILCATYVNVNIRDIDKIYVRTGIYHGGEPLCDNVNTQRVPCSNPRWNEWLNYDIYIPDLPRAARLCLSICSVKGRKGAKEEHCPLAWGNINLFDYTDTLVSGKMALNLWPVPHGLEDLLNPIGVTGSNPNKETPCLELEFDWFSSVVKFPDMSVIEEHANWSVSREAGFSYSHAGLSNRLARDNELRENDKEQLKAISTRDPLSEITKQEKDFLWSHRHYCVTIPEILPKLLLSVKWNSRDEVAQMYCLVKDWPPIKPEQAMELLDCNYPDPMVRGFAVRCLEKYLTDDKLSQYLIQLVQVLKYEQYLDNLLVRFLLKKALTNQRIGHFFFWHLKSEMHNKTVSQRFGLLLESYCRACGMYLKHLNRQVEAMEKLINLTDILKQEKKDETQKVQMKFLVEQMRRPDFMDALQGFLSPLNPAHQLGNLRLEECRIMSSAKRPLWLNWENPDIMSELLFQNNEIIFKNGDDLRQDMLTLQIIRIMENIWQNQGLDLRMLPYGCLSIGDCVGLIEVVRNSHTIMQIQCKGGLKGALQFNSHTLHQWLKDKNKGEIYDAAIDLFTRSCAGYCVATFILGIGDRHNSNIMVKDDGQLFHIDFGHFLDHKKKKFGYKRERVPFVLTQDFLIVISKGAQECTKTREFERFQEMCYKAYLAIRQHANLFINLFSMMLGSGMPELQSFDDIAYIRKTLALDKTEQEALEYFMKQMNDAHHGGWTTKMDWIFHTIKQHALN
Chain of PI3Kα E545K (P27986 whole entry partner): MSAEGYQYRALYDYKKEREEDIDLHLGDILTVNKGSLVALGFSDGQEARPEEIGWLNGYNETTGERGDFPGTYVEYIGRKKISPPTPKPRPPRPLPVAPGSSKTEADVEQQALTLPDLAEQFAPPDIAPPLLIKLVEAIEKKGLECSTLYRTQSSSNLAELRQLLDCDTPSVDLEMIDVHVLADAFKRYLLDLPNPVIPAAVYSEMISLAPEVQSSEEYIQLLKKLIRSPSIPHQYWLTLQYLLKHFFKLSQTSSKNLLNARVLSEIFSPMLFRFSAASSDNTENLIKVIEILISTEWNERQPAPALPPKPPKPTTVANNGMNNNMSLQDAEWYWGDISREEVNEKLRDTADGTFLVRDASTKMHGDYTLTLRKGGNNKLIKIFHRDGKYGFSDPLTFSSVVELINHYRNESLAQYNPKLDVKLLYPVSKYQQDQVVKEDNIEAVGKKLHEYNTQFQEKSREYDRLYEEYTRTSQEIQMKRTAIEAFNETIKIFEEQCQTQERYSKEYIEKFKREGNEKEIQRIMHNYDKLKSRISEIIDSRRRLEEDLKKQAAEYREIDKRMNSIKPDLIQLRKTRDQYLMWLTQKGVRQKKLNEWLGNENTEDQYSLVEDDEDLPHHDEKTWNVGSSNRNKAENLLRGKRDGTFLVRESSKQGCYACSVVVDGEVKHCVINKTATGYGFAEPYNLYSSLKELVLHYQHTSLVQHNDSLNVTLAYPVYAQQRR

For this assay, the target named is PI3Kα E545K (Homo sapiens, UniProt P42336, E545K). The assay is described as follows: PI3Kα E545K mutant in vitro cell based assay, MDA-MB-361 cells. Set-up: MDA-MB-361 (ATCC-HTB-27) cell line (PI3Kα E545K); host or cells: MDA-MB-361. Particulars: MDA-MB-361 cell line, 0% FBS, no insulin, 3 hours treatment. The text has this:
PI3K-Alpha Kinase (PI3Kα) Activity: Wild-Type PI3Kα, H1047R Mutant PI3Kα, and E545K Mutant PI3Kα In Vitro Cell Based Assays and Determination of IC50 Values for Inhibitors
The MDA-MB-453 (ATCC-HTB-131) cell line (PI3Kα H1047R) and MCF-7 (ATCC-HTB-22) cell line (PI3Kα E545K), MDA-MB-361 (ATCC-HTB-27) cell line (PI3Kα E545K), and SKBR3 (ATCC-HTB-30) cell line (wild type PI3Kα) were obtained from the American Type Culture Collection (Manassas, VA). MDA-MB-453 cells were maintained in Dulbecco's Modified Eagle Media (DMEM, Gibco 12430) supplemented with 10% Fetal Bovine Serum, heat inactivated (FBS HI, Gibco 10082), 1× non-essential amino acids (NEAA, Gibco 11140), 1 mM sodium pyruvate (Gibco 11360) and 1× Anti-Anti (Gibco 15240). MCF-7 cells were maintained in Minimum Essential Media (MEM) (Gibco 11095) supplemented with 10% Fetal Bovine Serum, heat inactivated (FBS HI, Gibco 10082), 1× non-essential amino acids (NEAA, Gibco 11140), 1 mM sodium pyruvate (Gibco 11360), 1× Anti-Anti (Gibco 15240) and 10 μg/mL human insulin (Sigma I 9278). MDA-MB-361 cells were maintained in Dulbecco's Modified Eagle Media (DMEM, Gibco 12430) supplemented with 20% Fetal Bovine Serum, heat inactivated (FBS HI, Gibco 10082), 1× non-essential amino acids (NEAA, Gibco 11140), 1 mM sodium pyruvate (Gibco 11360) and 1× Anti-Anti (Gibco 15240). SKBR3 cells were maintained in McCoy's 5A (Gibco 16600) supplemented with 10% Fetal Bovine Serum, heat inactivated (FBS HI, Gibco 10082), and 1× Anti-Anti (Gibco 15240). Cultures were maintained in a humidified incubator at 37° C. under 5% CO2/95% air.
For compound testing in 0% FBS, MDA-MB-453, MCF-7 and SKBR3 cells were seeded at a density of 1.5×10^4, 1.0×10^4, and 1.0×10^4 cells, respectively, per well in white 384-well plates in 20 μl of Minimum Essential Media (MEM) assay media with 1×NEAA, 1 mM sodium pyruvate, and 1 μg/mL human insulin (Sigma 19278) (Assay Medium); while MDA-MB-361 cells were seeded at a density of 1.5×10^4 per well in white 384-well plates in 20 μl Assay Medium without insulin. After plating, cells were allowed to attach overnight. Compounds dissolved in 10 mM stock solutions in DMSO were serially diluted 1:3 in DMSO to generate a 10-point dilution series and plated using an acoustic liquid handler system (Echo 550 Series Liquid Handler, Labcyte). A 5× intermediate compound dilution plate in MEM with 1×NEAA and 1 mM sodium pyruvate (150 μM starting compound concentration in 1.5% DMSO) was then prepared. Five μl of the intermediate serially diluted compounds were added to the cell plate to final concentrations ranging from […] in 0.3% DMSO. 0.3% DMSO alone was used to establish the maximum (MAX) signal and GDC-0032 at a final concentration of 1 μM was used as a reference compound for the minimum (MIN) signal. After 3 hours treatment, the medium was removed, and the cells were lysed in 10 μL of 1× SureFire Lysis buffer with shaking for 10 minutes at room temperature. The Acceptor Mix (Reaction Buffer 1+Reaction Buffer 2+Activation Buffer+SureFire Ultra Acceptor Beads) was prepared by diluting Activation buffer 25-fold in combined Reaction Buffer 1 and Reaction Buffer 2.
The Acceptor beads were diluted 50-fold in the combined Reaction Buffers. Five μL of Acceptor Mix was added to each well, the plate was sealed and covered with foil and incubated for 1 hour at room temperature. The Donor Mix (dilution buffer+SureFire Ultra Donor Beads) was prepared by diluting Donor Beads 50-fold in dilution buffer. Five μL of the Donor Mix was added to each well and the plate sealed and covered with foil and incubated for 1-2 hours at room temperature in the dark. The plates were read on a Neo2 plate reader instrument from Biotek using standard AlphaLisa settings.
Compounds were tested in duplicate and the % inhibition at each compound concentration was used to generate two dose response curves. One IC50 was generated using average % inhibition at each compound concentration. […]
As for `Cc1cc([C@@H](C)Oc2ccc(Cl)nc2S(N)(=O)=O)c2oc(-c3cnn4c3COCC4)c(C)c(=O)c2c1` [Example 3B, 6-Chloro-3-[(1R)-1-[2-(6,7-dihydro-4H-pyrazolo[5,1-c][1,4]oxazin-3-yl)-3,6-dimethyl-4-oxo-chromen-8-yl]ethoxy]pyridine-2-sulfonamide], the pIC50 was over 6.30.

`Cc1cc([C@@H](C)Oc2ccc(Cl)nc2S(N)(=O)=O)c2oc(-c3cnc4c(c3)OCCO4)c(C)c(=O)c2c1` [Example 6B]: the pIC50 was over 6.30.

Turning to `Cc1cc([C@@H](C)Oc2ccc(Cl)nc2S(N)(=O)=O)c2oc(-c3cnn(C[C@H](C)O)c3)c(C)c(=O)c2c1` [Example 7B, 6-Chloro-3-[(1R)-1-[2-[1-[(2S)-2-hydroxypropyl]pyrazol-4-yl]-3,6-dimethyl-4-oxo-chromen-8-yl]ethoxy]pyridine-2-sulfonamide], the pIC50 was over 6.30.

The compound `Cc1cc([C@@H](C)Oc2ccc(Cl)nc2S(N)(=O)=O)c2oc(-c3ccccc3)c(C)c(=O)c2c1` [Example 13A, 6-Chloro-3-[(1R)-1-(3,6-dimethyl-4-oxo-2-phenyl-chromen-8-yl)ethoxy]pyridine-2-sulfonamide] had a pIC50 of over 6.30.

As to `Cc1cc([C@@H](C)Oc2ccc(Cl)nc2S(N)(=O)=O)c2oc(-c3cnn(C)c3)c(C)c(=O)c2c1` [Example 14A, 6-Chloro-3-[(1R)-1-[3,6-dimethyl-2-(1-methylpyrazol-4-yl)-4-oxo-chromen-8-yl]ethoxy]pyridine-2-sulfonamide], the pIC50 was over 6.30.

`Cc1cc([C@@H](C)Oc2ccc(Cl)nc2S(N)(=O)=O)c2oc(-c3cnc4c(c3)OCO4)c(C)c(=O)c2c1` [Example 15A, 6-Chloro-3-[(1R)-1-[2-([1,3]dioxolo[4,5-b]pyridin-6-yl)-3,6-dimethyl-4-oxo-chromen-8-yl]ethoxy]pyridine-2-sulfonamide]: the pIC50 was over 6.30.

`Cc1cc([C@@H](C)Oc2ccc(Cl)nc2S(N)(=O)=O)c2oc(-c3cnn(C)c3C)c(C)c(=O)c2c1` [Example 18C, 6-Chloro-3-[(1R)-1-[2-(1,5-dimethylpyrazol-4-yl)-3,6-dimethyl-4-oxo-chromen-8-yl]ethoxy]pyridine-2-sulfonamide] had a pIC50 of over 6.30.

Consider `Cc1cc([C@@H](C)Oc2ccc(Cl)nc2S(N)(=O)=O)c2oc(-c3cnc(OC(C)C)nc3)c(C)c(=O)c2c1` [Example 23C, 6-Chloro-3-[(1R)-1-[2-(2-isopropoxypyrimidin-5-yl)-3,6-dimethyl-4-oxo-chromen-8-yl]ethoxy]pyridine-2-sulfonamide], for which the pIC50 was over 6.30.

For the compound `Cc1cc([C@@H](C)Oc2ccc(Cl)nc2NC(=O)CO)c2oc(-c3cnn(C)c3)c(C)c(=O)c2c1` [Example 27B, N-[6-Chloro-3-[(1R)-1-[3,6-dimethyl-2-(1-methylpyrazol-4-yl)-4-oxo-chromen-8-yl]ethoxy]-2-pyridyl]-2-hydroxy-acetamide], the pIC50 was over 6.30.

For the compound `Cc1cc([C@@H](C)Oc2ccc(Cl)nc2C(=O)NOCC2CC2)c2oc(-c3ccc4nn(C)cc4c3)c(C)c(=O)c2c1` [Example 28A, 6-Chloro-N-(cyclopropylmethoxy)-3-[(1R)-1-[3,6-dimethyl-2-(2-methylindazol-5-yl)-4-oxo-chromen-8-yl]ethoxy]pyridine-2-carboxamide], the pIC50 was over 6.30.

On to `Cc1cc([C@@H](C)Oc2cccnc2-c2ccccc2F)c2oc(-c3cc[nH]c(=O)c3)c(C)c(=O)c2c1` [Example 29A, 4-[8-[(1R)-1-[[2-(2-Fluorophenyl)-3-pyridyl]oxy]ethyl]-3,6-dimethyl-4-oxo-chromen-2-yl]-1H-pyridin-2-one], for which the pIC50 is over 6.30.

Compound `Cc1cc([C@@H](C)Oc2cccnc2-c2ccccc2F)c2oc(-c3ccc(=O)[nH]c3)c(C)c(=O)c2c1` [Example 30A] had a pIC50 of over 6.30.

`Cc1cc([C@@H](C)Oc2ccc(Cl)nc2C(N)=O)c2oc(-c3cnn4c3COCC4)c(C)c(=O)c2c1` [Example 40A, 6-Chloro-3-[(1R)-1-[2-(6,7-dihydro-4H-pyrazolo[5,1-c][1,4]oxazin-3-yl)-3,6-dimethyl-4-oxo-chromen-8-yl]ethoxy]pyridine-2-carboxamide]: the pIC50 was over 6.30.

`Cc1cc([C@@H](C)Oc2ccc(Cl)nc2C(N)=O)c2oc(-c3ccc4cncn4c3)c(C)c(=O)c2c1` [Example 43C, 6-Chloro-3-[(1R)-1-(2-imidazo[1,5-a]pyridin-6-yl-3,6-dimethyl-4-oxo-chromen-8-yl)ethoxy]pyridine-2-carboxamide] showed a pIC50 of over 6.30.

With `Cc1cc([C@@H](C)Oc2ccc(Cl)nc2C(N)=O)c2oc(-c3ccc4nn(C)nc4c3)c(C)c(=O)c2c1` [Example 50A, 6-Chloro-3-[(1R)-1-[3,6-dimethyl-2-(2-methylbenzotriazol-5-yl)-4-oxo-chromen-8-yl]ethoxy]pyridine-2-carboxamide], the pIC50 is over 6.30.

As for `Cc1cc([C@@H](C)Oc2ccc(Cl)nc2C(N)=O)c2oc(-c3ccc4nn(C)c(C)c4c3)c(C)c(=O)c2c1` [Example 50C, 6-Chloro-3-[(1R)-1-[2-(2,3-dimethylindazol-5-yl)-3,6-dimethyl-4-oxo-chromen-8-yl]ethoxy]pyridine-2-carboxamide], the pIC50 was over 6.30.

`Cc1cc([C@@H](C)Oc2ccc(Cl)nc2C(N)=O)c2oc(-c3cnn(C4CC4)c3)c(C)c(=O)c2c1` [Example 51A, 6-Chloro-3-[(1R)-1-[2-(1-cyclopropylpyrazol-4-yl)-3,6-dimethyl-4-oxo-chromen-8-yl]ethoxy]pyridine-2-carboxamide] gave a pIC50 of over 6.30.

Turning to `Cc1cc([C@@H](C)Oc2ccc(Cl)nc2C(N)=O)c2oc(-c3cnn(C(F)F)c3)c(C)c(=O)c2c1` [Example 58A, 6-Chloro-3-[(1R)-1-[2-[1-(difluoromethyl)pyrazol-4-yl]-3,6-dimethyl-4-oxo-chromen-8-yl]ethoxy]pyridine-2-carboxamide], the pIC50 was over 6.30.

Regarding `Cc1cc([C@@H](C)Oc2ccc(Cl)nc2C(N)=O)c2oc(-c3cnc4c(c3)OCO4)c(C)c(=O)c2c1` [Example 59A, 6-Chloro-3-[(1R)-1-[2-([1,3]dioxolo[4,5-b]pyridin-6-yl)-3,6-dimethyl-4-oxo-chromen-8-yl]ethoxy]pyridine-2-carboxamide], the pIC50 is over 6.30.

`Cc1cc([C@@H](C)Oc2ccc(Cl)nc2C(N)=O)c2oc(-c3ccc4c(c3)OC(F)(F)O4)c(C)c(=O)c2c1` [Example 60A, 6-Chloro-3-[(1R)-1-[2-(2,2-difluoro-1,3-benzodioxol-5-yl)-3,6-dimethyl-4-oxo-chromen-8-yl]ethoxy]pyridine-2-carboxamide] gave a pIC50 of over 6.30.

Compound `Cc1cc([C@@H](C)Oc2ccc(Cl)nc2C(N)=O)c2oc(-c3ccc4occc4c3)c(C)c(=O)c2c1` [Example 61C, 3-[(1R)-1-[2-(Benzofuran-5-yl)-3,6-dimethyl-4-oxo-chromen-8-yl]ethoxy]-6-chloro-pyridine-2-carboxamide] showed a pIC50 of over 6.30.

As to `Cc1cc([C@@H](C)Oc2ccc(Cl)nc2C(N)=O)c2oc(C3CC3)c(C)c(=O)c2c1` [Example 63A, 6-Chloro-3-[(1R)-1-(2-cyclopropyl-3,6-dimethyl-4-oxo-chromen-8-yl)ethoxy]pyridine-2-carboxamide], the pIC50 was over 6.30.
